Laboratory results published in patent US12459914B2, “Compounds and compositions for the treatment of tumors” (FONDAZIONE ISTITUTO ITALIANO DI TECNOLOGIA, priority 2019, dated 2025).
Like-named read-outs stand apart in the source and are kept apart here.

How the values were obtained:
[1] = Pharmacokinetic studies in mice, plasma levels by LC/MS-MS; assay type: in vivo, C57B6/J mice; details: for half-life: read-out: t1/2 (calc)
Description: Male C57B6/J mice, 8 weeks old were used (Charles River). All procedures were performed in accordance with the Ethical Guidelines of European Communities Council (Directive 2010/63/EU of 22 Sep. 2010) and accepted by the Italian Ministry of Health. All efforts were made to minimize animal suffering and to use the minimal number of animals required to produce reliable results, according to the “3Rs concept”. Animals were group-housed in ventilated cages and had free access to food and water. They were maintained under a 12-hour light/dark cycle (lights on at 8:00 am) at controlled temperature (21° C.±1° C.) and relative humidity (55%±10%).
Compound d.12 was administered orally (PO), intraperitoneally (IP) and intravenously (IV) to C57B6/J male mice at 2 mg/kg/10 ml, 20 mg/kg/10 ml and 2 mg/kg/5 ml, respectively. Vehicle was composed by PEG400/Tween 80/Saline solution at 10/10/80% in volume, respectively for PO and IV administration. For IP administration, the same vehicle was used with the addition of 10% DMSO in final volume. Three animals per dose were treated. Blood samples at 0, 15, 30, 60, 120, 240, and 480 min after administration were collected for PO and IP arms. Blood samples at 0, 5, 15, 30, 60, 120 and 240 min after administration were collected for IV arm. Plasma was separated from blood by centrifugation for 15 min at 1500 rpm a 4° C., collected in a eppendorf tube and frozen (−80° C.). Control animals treated with vehicle only were also included in the experimental protocol.
Plasma samples were centrifuged at 21.100×g for 15 min at 4° C. An aliquot of each plasma sample was extracted (1:3) with cold CH3CN containing 200 nM of d.48 as internal standard being a close analogue of the parent compound. A calibration curve was prepared in naïve mouse plasma over a 1 nM-10 μM range. Three quality control samples were prepared by spiking the parent compound in naïve mouse plasma to 20, 200 and 2000 nM as final concentrations. The calibrators and quality control samples were extracted (1:3) with the same extraction solution as the plasma samples. The plasma samples, calibrators and quality control samples were centrifuged at 3.270×g for 15 min at 4° C. The supernatants were further diluted (1:1) with H2O, and analyzed by LC/MS-MS on a Waters ACQUITY UPLC/MS TQD system consisting of a Triple Quadrupole Detector (TQD) Mass Spectrometer equipped with an Electrospray Ionization interface and a Photodiode Array e, Detector from Waters Inc. (Milford, MA, USA). Electrospray ionization was applied in positive mode. Compound-dependent parameters as MRM transitions and collision energy were developed for the parent compound and the internal standard. The analyses were run on an ACQUITY UPLC BEH C18 (50×2.1 mmID, particle size 1.7 μm) with a VanGuard BEH C18 pre-column (5×2.1 mmID, particle size 1.7 μm) at 40° C., using H2O+0.1% HCOOH (A) and CH3CN+0.1% HCOOH (B) as mobile phase at 0.5 mL/min. A linear gradient was applied starting at 40% B with an initial hold for 0.2 min, then 40-100% B in 2 min, followed by a hold for 0.1 min at 100% B. All samples (plasma samples, calibrators and quality controls) were quantified by MRM peak area response factor in order to determine the levels of the parent compound in plasma. The plasma concentrations versus time were plotted and the profiles were fitted using PK Solutions Excel Application (Summit Research Service, USA) in order to determine the pharmacokinetic parameters. The results are reported in Tables 2 and 3 and in FIGS. 1, 2 and 3.

[2] = test system: BxPC-3 cells; test: Association with olaparib (given alone or in combination), cell viability / cytotoxicity; assay type: cell-based; details: olaparib 10 μM, 72 h
Description: BxPC-3 cells were grown in RPMI 1640 containing 10% FBS, 100 U/ml penicillin/streptomycin, 2 mM glutamine. All media and supplements were from Sigma-Aldrich. Cultures were routinely tested for Mycoplasma contamination. Treatments (Olaparib and BRCA2-Rad51 disruptors) were administered in culture medium supplemented with 0.6% DMSO. The same amount of DMSO was added to the control, untreated cultures.
Cell viability was assessed by CellTiter Glo, Luminescent Cell Viability Assay. Briefly, BxPC-3 cells (1×10^4/well) were plated in white 96-well plates with clear bottom and treated for 72 h with olaparib (10 μM) or with the BRCA2-Rad51 disruptors, given alone or in combination. After treatments, the plate was allowed to equilibrate at room temperature for 30 min and the CellTiter-Glo reactive was directly added to each well. The plate was kept on a shaker for 2 min to induce cell lysis and its luminescence was measured by using a Fluoroskan Ascent FL reader (Labsystems) using manufacturer's instructions.
Cell death was assessed by applying the CellTox™ Green Cytotoxicity assay (Promega). Briefly, BxPC-3 (1×10^4/well) were plated in black 96-well plates with clear bottom and treated for 72 h with olaparib (10 μM) or with the BRCA2-Rad51 disruptors, given alone or in combination. At the end of treatment, the CellTox™ dye was added to cell cultures and the green fluorescence signal, which is produced by the binding interaction with dead cell DNA, was measured following the manufacturer's instructions. The fluorescence signal was detected using the EnSpire 2300 Multilabel Reader (Perkin Elmer); for each sample, the obtained signal was normalized on the number of viable cells, detected by the CellTiterGlo reagent.

[3] = test system: BxPC-3 cells; test: Cell viability assay (CellTiter Glo); assay type: cell-based; details: Homo sapiens, 72 h
[4] = male, C57B6/J, mouse, plasma, mice, IP 20 mg/kg
[5] = male, C57B6/J, mouse, plasma, mice, IV 2 mg/kg
[6] = male, C57B6/J, mouse, plasma, mice, PO 2 mg/kg
[7] = male, C57B6/J, mouse plasma, IV 2 mg/kg, read-out: Average conc.
[8] = male, C57B6/J, mouse plasma, PO 2 mg/kg, read-out: Average conc.

AUC [1, 4]: 9280 ng·h/mL | Cmax [1, 4]: 5300 ng/mL | Tmax [1, 4]: 30 min | half-life [1, 4]: 175 min | AUC [1, 5]: 899 ng·h/mL | Cmax [1, 5]: 973 ng/mL | Tmax [1, 5]: 5 min | clearance ([1]; male, C57B6/J, mouse, plasma, mice, IV 2 mg/kg, read-out: CL (calc)): 33 mL/min/kg | Vd ([1]; male, C57B6/J, mouse, plasma, mice, IV 2 mg/kg, read-out: VD (calc)): 2.2 L/kg | half-life [1, 5]: 47 min | AUC [1, 6]: 100 ng·h/mL | Cmax [1, 6]: 76 ng/mL | Tmax [1, 6]: 30 min | half-life [1, 6]: 281 min | concentration at 5 min ([1]; male, C57B6/J, mouse plasma, IV 2 mg/kg, 5 min, read-out: Average conc.): 973 ng/mL | concentration at 15 min [1, 7]: 622 ng/mL | concentration at 30 min [1, 7]: 515 ng/mL | concentration at 60 min [1, 7]: 337 ng/mL | concentration at 120 min [1, 7]: 146 ng/mL | concentration at 240 min [1, 7]: 23 ng/mL | concentration at 0 min ([1]; male, C57B6/J, mouse plasma, PO 2 mg/kg, 0 min, read-out: Average conc.): 0 ng/mL | concentration at 15 min [1, 8]: 42 ng/mL | concentration at 30 min [1, 8]: 76 ng/mL | concentration at 60 min [1, 8]: 30 ng/mL | concentration at 120 min [1, 8]: 21 ng/mL | concentration at 240 min [1, 8]: 7 ng/mL | concentration at 480 min ([1]; male, C57B6/J, mouse plasma, PO 2 mg/kg, 480 min, read-out: Average conc.): 4 ng/mL | F ([1]; mice, 2 mg/kg): 11% | CL (calc) ([1]; mice, IP 20 mg/kg): 27 mL/min/kg | VD (calc) ([1]; mice, IP 20 mg/kg): 6.701 L/kg | CL (calc) ([1]; mice, PO 2 mg/kg): 222 mL/min/kg | VD (calc) ([1]; mice, PO 2 mg/kg): 90.009 L/kg | EC50 [3]: 19 µM
Structure (SMILES): CCC(=O)N1N=C(c2c(-c3ccccc3)c3cc(Cl)ccc3[nH]c2=O)CC1c1ccc(OC)cc1 (stereo not shown) [d.12, 6-chloro-3-[3-(4-methoxyphenyl)-2-propanoyl-3,4-dihydropyrazol-5-yl]-4-phenyl-1H-quinolin-2-one]
Olaparib Assoc. [2]: synergy
